Measured values: ChEMBL document CHEMBL1125240, “Synthesis and biological activity of 5,11-methylenetetrahydro-5- deazahomofolic acid” (J Med Chem, 1991)

Experiments:
[1] = biological target: Thymidylate synthase (Homo sapiens, UniProt P04818); experiment: Compound was evaluated for the ability to inhibit thymidylate synthase from Manca cells.; type: cell-based
[2] = biological target: T1, Thymidylate synthase (Lactobacillus casei, UniProt P00469); experiment: Compound was evaluated for the ability to inhibit thymidylate synthase from Lactobacillus casei cells.; set-up: species or system Lacticaseibacillus casei
T1 sequence (P00469 whole entry): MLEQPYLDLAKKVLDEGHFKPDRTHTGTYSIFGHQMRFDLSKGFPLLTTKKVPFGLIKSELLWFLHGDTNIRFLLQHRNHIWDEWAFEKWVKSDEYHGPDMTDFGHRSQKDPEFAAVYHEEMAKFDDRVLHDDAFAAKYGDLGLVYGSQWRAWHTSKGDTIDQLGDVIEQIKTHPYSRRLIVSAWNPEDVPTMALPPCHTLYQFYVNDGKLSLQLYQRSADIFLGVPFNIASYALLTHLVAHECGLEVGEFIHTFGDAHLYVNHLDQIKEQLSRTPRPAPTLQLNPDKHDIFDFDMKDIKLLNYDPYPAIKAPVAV

[3] = tested on: Manca; experiment: Compound was evaluated for the ability to inhibit growth of Manca human lymphoma cells.; type: functional, cell-based
[4] = biological target: T2, Trifunctional purine biosynthetic protein adenosine-3 (Homo sapiens, UniProt P22102); experiment: Compound was evaluated for the ability to inhibit Glycinamide ribonucleotide formyltransferase from Manca cells.; type: cell-based
T2 sequence (P22102 whole entry): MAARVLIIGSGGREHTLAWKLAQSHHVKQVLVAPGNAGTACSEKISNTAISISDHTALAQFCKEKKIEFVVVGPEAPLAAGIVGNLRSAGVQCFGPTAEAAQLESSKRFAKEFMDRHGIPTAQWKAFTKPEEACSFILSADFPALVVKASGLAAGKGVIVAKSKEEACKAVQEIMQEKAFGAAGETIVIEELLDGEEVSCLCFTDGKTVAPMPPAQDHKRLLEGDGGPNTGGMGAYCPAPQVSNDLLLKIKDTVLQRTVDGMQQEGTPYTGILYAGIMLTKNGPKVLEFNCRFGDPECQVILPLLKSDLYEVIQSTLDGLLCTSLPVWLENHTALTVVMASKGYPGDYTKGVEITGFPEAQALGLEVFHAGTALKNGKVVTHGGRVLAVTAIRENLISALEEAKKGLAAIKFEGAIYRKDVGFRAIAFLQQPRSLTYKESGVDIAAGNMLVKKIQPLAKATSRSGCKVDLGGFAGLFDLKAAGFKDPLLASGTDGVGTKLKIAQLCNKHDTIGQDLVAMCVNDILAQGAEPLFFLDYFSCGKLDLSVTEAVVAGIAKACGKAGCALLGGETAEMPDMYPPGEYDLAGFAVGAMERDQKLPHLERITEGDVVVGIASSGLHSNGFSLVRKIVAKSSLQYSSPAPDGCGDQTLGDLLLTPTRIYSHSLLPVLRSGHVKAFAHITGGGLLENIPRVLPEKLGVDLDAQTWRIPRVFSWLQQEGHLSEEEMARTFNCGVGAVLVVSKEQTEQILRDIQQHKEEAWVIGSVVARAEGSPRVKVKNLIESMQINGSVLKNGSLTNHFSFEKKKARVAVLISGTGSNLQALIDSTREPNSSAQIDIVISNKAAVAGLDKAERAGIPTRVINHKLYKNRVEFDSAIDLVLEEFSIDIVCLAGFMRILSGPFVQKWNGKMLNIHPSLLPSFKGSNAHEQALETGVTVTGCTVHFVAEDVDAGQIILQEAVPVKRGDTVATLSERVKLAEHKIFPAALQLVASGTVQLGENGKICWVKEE

Chain of Thymidylate synthase (Homo sapiens, UniProt P04818) (P04818 whole entry): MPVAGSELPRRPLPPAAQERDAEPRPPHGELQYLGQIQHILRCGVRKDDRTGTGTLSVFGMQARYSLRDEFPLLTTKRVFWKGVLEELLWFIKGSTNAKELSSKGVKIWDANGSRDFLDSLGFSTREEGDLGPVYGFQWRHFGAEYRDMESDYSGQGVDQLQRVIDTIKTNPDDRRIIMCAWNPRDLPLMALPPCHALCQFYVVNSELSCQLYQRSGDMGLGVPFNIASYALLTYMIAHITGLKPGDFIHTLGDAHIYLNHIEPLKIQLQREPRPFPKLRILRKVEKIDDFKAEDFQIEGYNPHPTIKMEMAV

IC50 [1]: > 200 µM
IC50 [2]: > 100 µM
IC50 [4]: > 20 µM
Compound: Nc1nc2c(c(=O)[nH]1)C1CN(c3ccc(C(=O)NC(CCC(=O)O)C(=O)O)cc3)CCC1CN2 (centres undefined)
IC50 [3]: > 14 µM
